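Step 1: Grow cells in 96-well plates. Step 2: Expose to compound for 48 hours at 5 concentrations. Step 3: Interpolate endpoints linearly; if unreached, use highest concentration. TGI: total growth inhibition.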
tested on: MDA-MB-435; assay: inhibition of tumour cell growth, NCI panel, 48 h

`CC(C)=CCC[C@@H](C)C1=C(O)C(O)C(C)=C2N=C(c3ccccc3)C(=O)OC21` (stereo not given in full) and `COc1cc(/C=C(\C#N)c2nc3ccccc3o2)ccc1O` cannot be ordered by TGI: > 25 µM for the first, 41.6 µM for the second.

First: CCOC(=O)C1=CN/C(=C(/C)C(=O)OC)SC1C(=O)OCC (stereo not given)
Second: CCOC(=O)C(SCCO)C(C(=O)OCC)n1cnc2c(N)ncnc21 (stereo not given)
The TGI of the first is higher: > 100 µM for the first, 30.2 µM for the second.

`COc1ccc2cc(CNCCCCCCCCCCCCNCc3ccc4cc(OC)ccc4c3)ccc2c1` and `CCCCCCCCCCCCCCCCCCNc1ccn(C2OC(COP(=O)(O)OC3CC(n4cc(F)c(=O)[nH]c4=O)OC3COP(=O)(O)OCC3OC(n4ccc(N)nc4=O)C(O)C3O)C(O)C2O)c(=O)n1` (stereo not given) cannot be ordered by TGI: > 55.5 µM for the first, > 62.5 µM for the second.

Going from `Cc1cc(C)nc(NS(=O)(=O)c2ccc(NNc3c4ccccc4nc4c(C(=O)Nc5ccc(S(=O)(=O)Nc6ncccn6)cc5)cccc34)cc2)n1` to `O=C(N/N=C/c1ccc2c(c1)OCO2)Nc1ccccc1Cl`, the TGI falls from 55.3 µM to 1.33 µM (42-fold).

Going from `O=C1CC(NC(=O)C(F)(F)F)c2c1csc2Br` (stereo not given) to `CC1(C)C2CCC3=C(CCC4(C)C5C[C@](C)(C(=O)O)CC[C@]5(C)CC[C@]34C)[C@@]2(C)CC[C@@H]1O` (stereo not given in full), the TGI falls from > 100 µM to 63 µM.

tested on: RXF 393 renal; assay: inhibition of tumour cell growth, NCI panel, 48 h

`N#CC(C#N)N=Cc1ccncc1` and `COc1cc(/C=C(\C#N)c2nc3ccccc3o2)ccc1O` cannot be ordered by TGI: > 100 µM for the first, > 100 µM for the second.

First: COC(=O)C1=C(O)C(C(=O)OC)[C@]2(O)[C@H](C(=O)OC)[C@H]1C[C@@H](c1ccc(F)cc1)[C@H]2C(=O)OC (stereo not given in full)
Second: CCOC(=O)C1=CN/C(=C(/C)C(=O)OC)SC1C(=O)OCC (stereo not given)
The TGI of the first is lower: 26.5 µM for the first, > 100 µM for the second.

Going from `CC(=O)O[C@H]1CC[C@H]2[C@@H]3CCC4C(C)=NNC(=O)C4[C@H]3CC[C@]12C` (stereo not given in full) to `CC1(C)C2CCC3=C(CCC4(C)C5C[C@](C)(C(=O)O)CC[C@]5(C)CC[C@]34C)[C@@]2(C)CC[C@@H]1O` (stereo not given in full), the TGI falls from > 100 µM to 41.3 µM.

Compared with `O=c1[nH]c(C23CC4CC(CC(C4)C2)C3)cc2c1c(=O)oc1ccccc12`, `O=C1C(=O)c2c(oc(=O)c3ccccc23)-c2ccccc21` is higher in TGI: 7.71 µM for the first, > 25 µM for the second.

Compared with `CN1CCC2(CC1)SC[C@H]1C(=O)N(c3ccc(Cl)cc3)C(=O)N12`, `O=C(N/N=C/c1ccc2c(c1)OCO2)Nc1ccccc1Cl` is lower in TGI: > 100 µM for the first, 12.2 µM for the second.

`CC(C)=CCC[C@@H](C)C1=C(O)C(O)C(C)=C2N=C(c3ccccc3)C(=O)OC21` (stereo not given in full) and `Cc1cc(C)nc(NS(=O)(=O)c2ccc(NNc3c4ccccc4nc4c(C(=O)Nc5ccc(S(=O)(=O)Nc6ncccn6)cc5)cccc34)cc2)n1` cannot be ordered by TGI: > 17.1 µM for the first, 80.1 µM for the second.

First: COc1ccc2cc(CNCCCCCCCCCCCCNCc3ccc4cc(OC)ccc4c3)ccc2c1
Second: CCCCCCCCCCCCCCCCCCNc1ccn(C2OC(COP(=O)(O)OC3CC(n4cc(F)c(=O)[nH]c4=O)OC3COP(=O)(O)OCC3OC(n4ccc(N)nc4=O)C(O)C3O)C(O)C2O)c(=O)n1 (stereo not given)
The TGI of the first is lower: 28.7 µM for the first, > 75.5 µM for the second.

Going from `O=C1CC(NC(=O)C(F)(F)F)c2c1csc2Br` (stereo not given) to `CCOC(=O)C(SCCO)C(C(=O)OCC)n1cnc2c(N)ncnc21` (stereo not given), the TGI falls from 47.9 µM to 29.6 µM (1.6-fold).

tested on: OVCAR-8 ovarian; assay: inhibition of tumour cell growth, NCI panel, 48 h

Compared with `N#CC(C#N)N=Cc1ccncc1`, `COc1cc(/C=C(\C#N)c2nc3ccccc3o2)ccc1O` is lower in TGI: > 100 µM for the first, 50 µM for the second.

Going from `COC(=O)C1=C(O)C(C(=O)OC)[C@]2(O)[C@H](C(=O)OC)[C@H]1C[C@@H](c1ccc(F)cc1)[C@H]2C(=O)OC` (stereo not given in full) to `CCOC(=O)C1=CN/C(=C(/C)C(=O)OC)SC1C(=O)OCC` (stereo not given), the TGI rises from 86.8 µM to > 100 µM.

First: CC(=O)O[C@H]1CC[C@H]2[C@@H]3CCC4C(C)=NNC(=O)C4[C@H]3CC[C@]12C (stereo not given in full)
Second: O=c1[nH]c(C23CC4CC(CC(C4)C2)C3)cc2c1c(=O)oc1ccccc12
The TGI of the first is higher: > 100 µM for the first, 15 µM for the second.

`O=C1C(=O)c2c(oc(=O)c3ccccc23)-c2ccccc21` and `CC(C)=CCC[C@@H](C)C1=C(O)C(O)C(C)=C2N=C(c3ccccc3)C(=O)OC21` (stereo not given in full) cannot be ordered by TGI: > 25 µM for the first, > 11 µM for the second.

`CN1CCC2(CC1)SC[C@H]1C(=O)N(c3ccc(Cl)cc3)C(=O)N12` and `O=C(N/N=C/c1ccc2c(c1)OCO2)Nc1ccccc1Cl` cannot be ordered by TGI: > 100 µM for the first, > 43.1 µM for the second.

Compared with `COc1ccc2cc(CNCCCCCCCCCCCCNCc3ccc4cc(OC)ccc4c3)ccc2c1`, `Cc1cc(C)nc(NS(=O)(=O)c2ccc(NNc3c4ccccc4nc4c(C(=O)Nc5ccc(S(=O)(=O)Nc6ncccn6)cc5)cccc34)cc2)n1` is higher in TGI: 32.4 µM for the first, > 100 µM for the second.

First: O=C1CC(NC(=O)C(F)(F)F)c2c1csc2Br (stereo not given)
Second: CCOC(=O)C(SCCO)C(C(=O)OCC)n1cnc2c(N)ncnc21 (stereo not given)
The TGI of the first is higher: > 100 µM for the first, 31.2 µM for the second.

Source: PubChem BioAssay (NCI)
